Measurements from ChEMBL document CHEMBL1148065, “Two new flavones from Calliandra californica” (1994).
Activity calls are given as the source filed them. The calls are words filed in the database; no cut-off is given here.

Columns and labels:
[1] = system: Bacillus subtilis; assay: Antimicrobial activity against Bacillus subtilis at 1 mg/disk; assay type: functional
[2] = system: Staphylococcus aureus; assay: Antimicrobial activity against Staphylococcus aureus at 1 mg/disk; assay type: functional

Row | Compound | Activity [1] | Activity [2] | inhibition zone (IZ) [1] | inhibition zone (IZ) [2]
1 | COc1ccc2c(=O)cc(-c3cc(OC)c(OC)cc3OC)oc2c1 | inactive | inactive | – | –
2 | COc1cc(O)c2c(=O)cc(-c3cc(OC)c(OC)cc3OC)oc2c1 | – | – | 11 mm | 8 mm
